Experimental findings from patent US10219516B2, “Molecules having pesticidal utility, and intermediates, compositions, and processes, related thereto” (priority 2015, dated 2019) are described below.

The structures appear in SMILES notation. Read-outs that look alike come from different tables or passages of the source.

What all share (type): in vivo
For experiment [1], the system named is Beet Armyworm (Spodoptera exigua, LAPHEG). Briefly: Bioassay on Beet Armyworm (BAW), 128-well diet tray assay. In outline:
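Percent mortality, averaged across eight replicate wells, was scored after five to seven days at 25° C. under a 14:10 light-dark cycle. Each well's diet carried 50 μg/cm^2 of the dried test molecule and held one to five second instar larvae.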

In experiment [2] the test system is Cabbage Looper (Trichoplusia ni, TRIPNI). The experiment is described as follows: Bioassay on Cabbage Looper (CL), 128-well diet tray assay. The settings on record: Trichoplusia ni. In outline: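 Test molecule is dissolved in 90:10 acetone-water and applied at 50 μg/cm^2 onto artificial diet, then dried. One to five second-instar larvae go into each of eight wells. Trays, sealed but vented, stay at 25° C., 14:10 light-dark, five to seven days, after which mortality is averaged.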

The test system of experiment [3] is Green Peach Aphid (Myzus persicae, MYZUPE). The experiment is described as follows: Bioassay on Green Peach Aphid (GPA), foliar spray on infested cabbage seedlings. The settings on record: 72 h. In outline:
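Cabbage seedlings (2-3 true leaves) infested with 20-50 wingless adult and nymph aphids one day before treatment; sprayed to runoff at 200 ppm in 0.025% Tween 20 water with 20% acetone/methanol, four pots per treatment. Held three days at about 25° C; live aphids counted, % control by Abbott's correction versus solvent check.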

Experiment [4] relates to Yellow Fever Mosquito (Aedes aegypti, AEDSAE). The experiment is described as follows: Bioassay on Yellow Fever Mosquito (YFM), 96-well plate larval assay. Particulars: for YFM rating: Yellow Fever Mosquito, 96-well plate larval assay; for YFM (Biological Results, rating): Species YFM (Yellow Fever Mosquito). In outline:
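Aedes aegypti larvae (about 1 day old) in liver-powder water were added to plates dispensed from DMSO master plates (4000 ppm stock) diluted with 90:10 water/acetone; six replicate plates per master. Lidded plates were held at room temperature for 3 days, then each well was scored for mortality.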

The mark [5] stands for this setting: Beet Armyworm, 128-well diet tray assay, read-out: BAW rating.
[6] abbreviates: Cabbage Looper, 128-well diet tray assay, read-out: CL rating.
Setting [7] is: Green Peach Aphid, foliar spray on cabbage seedlings, read-out: GPA rating.
[8] abbreviates: Species BAW (Beet Armyworm), read-out: BAW (Biological Results, rating).
Where [9] appears, read: Species CL (Cabbage Looper), read-out: CL (Biological Results, rating).
Where [10] appears, read: foliar, Species GPA (Green Peach Aphid), read-out: GPA (Biological Results, rating).

As for `O=C(Nc1cccc([N+](=O)[O-])c1)c1cc(NC(=O)[C@H]2[C@H](c3cc(Cl)cc(Cl)c3)C2(Cl)Cl)ccc1Cl` (relative stereo) [PF73, trans-2-Chloro-5-(2,2-dichloro-3-(3,5-dichlorophenyl)cyclopropane-1-carboxamido)-N-(3-nitrophenyl)benzamide], the pest or weed control at 50 µg/cm2 in experiment [1] (setting [5]) and in experiment [2] (setting [6]) was 50 to 100% each time. For the same compound, the pest or weed control at 200 µg/mL in experiment [3] (setting [7]) lay within 80 to 100%. Also, the YFM rating entry in experiment [4] is given as “B (More than 0-Less than 80)”.
For the compound `O=C(Nc1ccc(F)cc1)c1cc(NC(=O)[C@H]2[C@H](c3ccc(Cl)c(Cl)c3)C2(Cl)Cl)ccc1Cl` (relative stereo) [F14, trans-2-Chloro-5-(2,2-dichloro-3-(3,4-dichlorophenyl)cyclopropane-1-carboxamido)-N-(4-fluorophenyl)benzamide], the pest or weed control at 50 µg/cm2 in experiment [1] (setting [8]) and in experiment [2] (setting [9]) was 50 to 100% each time. Also, in experiment [3] (setting [10]), the pest or weed control at 200 µg/mL lay within 80 to 100%. Besides, the “YFM (Biological Results, rating)” value in experiment [4] was “A (80-100)”.
In the case of `O=C(Nc1ccc(F)cc1)c1cccc(NC(=O)[C@H]2[C@H](c3cc(Cl)cc(Cl)c3)C2(Cl)Cl)c1` (relative stereo) [F2, trans-3-(2,2-Dichloro-3-(3,5-dichlorophenyl)cyclopropane-1-carboxamido)-N-(4-fluorophenyl)benzamide], the pest or weed control at 50 µg/cm2 in experiment [1] (setting [8]) and in experiment [2] (setting [9]) was 50 to 100% each time. For the same compound, in experiment [3] (setting [10]), the pest or weed control at 200 µg/mL lay within 0 to 80%. Also, the “YFM (Biological Results, rating)” value in experiment [4] was “A (80-100)”.
In the case of `O=C(Nc1ccccc1)c1cc(NC(=O)[C@H]2[C@H](c3cc(Cl)cc(Cl)c3)C2(Cl)Cl)ccc1Cl` (relative stereo) [F16, trans-2-Chloro-5-(2,2-Dichloro-3-(3,5-dichlorophenyl)cyclopropane-1-carboxamido)-N-phenylbenzamide], the pest or weed control at 50 µg/cm2 in experiment [1] (setting [8]) and in experiment [2] (setting [9]) was 50 to 100% in each case. Moreover, the pest or weed control at 200 µg/mL in experiment [3] (setting [10]) fell in the range of 0 to 80%. In experiment [4], the “YFM (Biological Results, rating)” value is “A (80-100)”.
Regarding `Cc1cc(C#N)ccc1NC(=O)c1cc(NC(=O)[C@H]2[C@H](c3cc(Cl)c(Cl)c(Cl)c3)C2(Cl)Cl)ccc1Cl` (relative stereo) [F54, trans-2-Chloro-N-(4-cyano-2-methylphenyl)-5-(2,2-dichloro-3-(3,4,5-trichlorophenyl)cyclopropane-1-carboxamido)benzamide], the pest or weed control at 50 µg/cm2 in experiment [1] (setting [8]) and in experiment [2] (setting [9]) was 50 to 100% in each case. The pest or weed control at 200 µg/mL in experiment [3] (setting [10]) fell in the range of 0 to 80%. In addition, the “YFM (Biological Results, rating)” value in experiment [4] is listed as “A (80-100)”.
For the compound `Nc1c(F)ccc(NC(=O)c2cc(NC(=O)[C@H]3[C@H](c4ccc(Cl)c(Br)c4)C3(Cl)Cl)ccc2Cl)c1F` [F579, N-(3-Amino-2,4-difluorophenyl)-5-((1R,3R)-3-(3-bromo-4-chlorophenyl)-2,2-dichlorocyclopropane-1-carboxamido)-2-chlorobenzamide], the pest or weed control at 50 µg/cm2 in experiment [1] (setting [5]) and in experiment [2] (setting [6]) was 50 to 100% in each case. Further, in experiment [3] (setting [7]), the pest or weed control at 200 µg/mL fell in the range of 80 to 100%. Also, the YFM rating result in experiment [4] was “A (80-100)”.
On to `O=C(Nc1ccsc1)c1cc(NC(=O)[C@H]2[C@H](c3cc(Cl)cc(Cl)c3)C2(Cl)Cl)ccc1Cl` (relative stereo) [PF152, trans-2-Chloro-5-(2,2-dichloro-3-(3,5-dichlorophenyl)cyclopropane-1-carboxamido)-N-(thiophen-3-yl)benzamide], for which the pest or weed control at 50 µg/cm2 in experiment [1] (setting [5]) and in experiment [2] (setting [6]) was 50 to 100% in each case. Besides, in experiment [3] (setting [7]), the pest or weed control at 200 µg/mL lay in the range of 0 to 80%. Moreover, in experiment [4], the YFM rating entry is on record as “B (More than 0-Less than 80)”.
Turning to `Cc1ccc(NC(=O)[C@H]2[C@H](c3cc(Cl)cc(Cl)c3)C2(Cl)Cl)cc1C(=O)Nc1ccc(F)cc1` (relative stereo) [F10, trans-5-(2,2-Dichloro-3-(3,5-dichlorophenyl)cyclopropane-1-carboxamido)-N-(4-fluorophenyl)-2-methylbenzamide], the pest or weed control at 50 µg/cm2 in experiment [1] (setting [8]) and in experiment [2] (setting [9]) was 50 to 100% in each case. In addition, the pest or weed control at 200 µg/mL in experiment [3] (setting [10]) is 0 to 80%. The “YFM (Biological Results, rating)” value in experiment [4] is “A (80-100)”.
With `CC(C)c1ccccc1NC(=O)c1cc(NC(=O)[C@H]2[C@H](c3cc(Cl)cc(Cl)c3)C2(Cl)Cl)ccc1Cl` (relative stereo) [F41, trans-2-Chloro-5-(2,2-dichloro-3-(3,5-dichlorophenyl)cyclopropane-1-carboxamido)-N-(2-isopropylphenyl)benzamide], the pest or weed control at 50 µg/cm2 in experiment [1] (setting [8]) and in experiment [2] (setting [9]) was 50 to 100% throughout. Also, in experiment [3] (setting [10]), the pest or weed control at 200 µg/mL is 0 to 80%. In addition, in experiment [4], the “YFM (Biological Results, rating)” value is listed as “A (80-100)”.
For the compound `C#CCN(C(=O)c1cc(NC(=O)[C@H]2[C@H](c3ccc(F)c(Cl)c3)C2(Cl)Cl)ccc1Cl)c1ccc(F)cc1F` [F414, 2-Chloro-5-((1R,3R)-2,2-dichloro-3-(3-chloro-4-fluorophenyl)cyclopropane-1-carboxamido)-N-(2,4-difluorophenyl)-N-(prop-2-yn-1-yl)benzamide], the pest or weed control at 50 µg/cm2 in experiment [1] (setting [5]) and in experiment [2] (setting [6]) was 50 to 100% each time. Moreover, the pest or weed control at 200 µg/mL in experiment [3] (setting [7]) was 80 to 100%. Besides, in experiment [4], the YFM rating entry is listed as “A (80-100)”.
For the compound `CN(C(=O)c1cc(NC(=O)[C@H]2[C@H](c3cc(Cl)c(Cl)c(Cl)c3)C2(Cl)Cl)ccc1Cl)c1ccc(F)cc1` (relative stereo) [F52, trans-2-Chloro-5-(2,2-dichloro-3-(3,4,5-trichlorophenyl)cyclopropane-1-carboxamido)-N-(4-fluorophenyl)-N-methylbenzamide], the pest or weed control at 50 µg/cm2 in experiment [1] (setting [8]) and in experiment [2] (setting [9]) was 50 to 100% in each case. In addition, the pest or weed control at 200 µg/mL in experiment [3] (setting [10]) lay within 80 to 100%. For the same compound, in experiment [4], the “YFM (Biological Results, rating)” value is listed as “A (80-100)”.
`O=C(Nc1cccc(F)c1)c1cc(NC(=O)[C@H]2[C@H](c3cc(Cl)cc(Cl)c3)C2(Cl)Cl)ccc1Cl` (relative stereo) [F20, trans-2-Chloro-5-(2,2-dichloro-3-(3,5-dichlorophenyl)cyclopropane-1-carboxamido)-N-(3-fluorophenyl)benzamide]: the pest or weed control at 50 µg/cm2 in experiment [1] (setting [8]) and in experiment [2] (setting [9]) was 50 to 100% each time. In addition, the pest or weed control at 200 µg/mL in experiment [3] (setting [10]) lay in the range of 0 to 80%. In addition, the “YFM (Biological Results, rating)” value in experiment [4] was “A (80-100)”.
In the case of `O=C(Nc1ccc(F)cn1)c1cc(NC(=O)[C@H]2[C@H](c3cc(Cl)cc(Cl)c3)C2(Cl)Cl)ccc1Cl` (relative stereo) [F76, trans-2-Chloro-5-(2,2-dichloro-3-(3,5-dichlorophenyl)cyclopropane-1-carboxamido)-N-(5-fluoropyridin-2-yl)benzamide], the pest or weed control at 50 µg/cm2 in experiment [1] (setting [8]) and in experiment [2] (setting [9]) was 50 to 100% in each case. Further, the pest or weed control at 200 µg/mL in experiment [3] (setting [10]) was 80 to 100%. Besides, in experiment [4], the “YFM (Biological Results, rating)” value is “B (More than 0-Less than 80)”.
For `O=C(Nc1ccc(F)cc1)c1cc(NC(=O)[C@H]2[C@H](c3cc(Cl)c(Cl)c(Cl)c3)C2(Cl)Cl)ccc1Cl` (relative stereo) [F13, trans-2-Chloro-5-(2,2-dichloro-3-(3,4,5-trichlorophenyl)cyclopropane-1-carboxamido)-N-(4-fluorophenyl)benzamide], the pest or weed control at 50 µg/cm2 in experiment [1] (setting [8]) and in experiment [2] (setting [9]) was 50 to 100% each time. Further, in experiment [3] (setting [10]), the pest or weed control at 200 µg/mL was 0 to 80%. In addition, the “YFM (Biological Results, rating)” value in experiment [4] is reported as “A (80-100)”.
As to `CCc1cccc(C)c1NC(=O)c1cc(NC(=O)[C@H]2[C@H](c3cc(Cl)cc(Cl)c3)C2(Cl)Cl)ccc1Cl` (relative stereo) [F42, trans-2-Chloro-5-(2,2-dichloro-3-(3,5-dichlorophenyl)cyclopropane-1-carboxamido)-N-(2-ethyl-6-methylphenyl)benzamide], the pest or weed control at 50 µg/cm2 in experiment [1] (setting [8]) and in experiment [2] (setting [9]) was 50 to 100% throughout. Also, the pest or weed control at 200 µg/mL in experiment [3] (setting [10]) is 0 to 80%. The “YFM (Biological Results, rating)” value in experiment [4] is on record as “A (80-100)”.
Consider `Cc1ccccc1NC(=O)c1cc(NC(=O)[C@H]2[C@H](c3cc(Cl)cc(Cl)c3)C2(Cl)Cl)ccc1Cl` (relative stereo) [F9, trans-2-Chloro-5-(2,2-dichloro-3-(3,5-dichlorophenyl)cyclopropane-1-carboxamido)-N-(o-tolyl)benzamide], for which the pest or weed control at 50 µg/cm2 in experiment [1] (setting [8]) and in experiment [2] (setting [9]) was 50 to 100% throughout. Moreover, the pest or weed control at 200 µg/mL in experiment [3] (setting [10]) lay within 80 to 100%. The “YFM (Biological Results, rating)” value in experiment [4] is reported as “A (80-100)”.
For `O=C(Nc1cccnc1Cl)c1cc(NC(=O)[C@H]2[C@H](c3cc(Cl)cc(Cl)c3)C2(Cl)Cl)ccc1Cl` (relative stereo) [F31, trans-2-Chloro-N-(2-chloropyridin-3-yl)-5-(2,2-dichloro-3-(3,5-dichlorophenyl)cyclopropane-1-carboxamido)benzamide], the pest or weed control at 50 µg/cm2 in experiment [1] (setting [8]) and in experiment [2] (setting [9]) was 50 to 100% each time. In addition, the pest or weed control at 200 µg/mL in experiment [3] (setting [10]) is 80 to 100%. In addition, the “YFM (Biological Results, rating)” value in experiment [4] is “A (80-100)”.
